Patent US9839618B2, “Compositions and methods relating to proliferative diseases” (The Penn State Research Foundation, priority 2010, dated 2017)
Like-named read-outs stand apart in the source and are kept apart here.

Key:
[1] = test system: Breast (MCF-7) cancer cell line; experiment: MTS assay viability IC50, MCF-7; assay type: cell-based; details: Homo sapiens, MCF7; Table 5
Procedure: (§1) Dehydroabietylamine, its N-substituted derivatives and the corresponding dihydroabietylamine and its N-substituted derivatives are tested for their capability to inhibit cell growth of cancer cell lines, including melanoma (UACC 903, 1205Lu), breast (MCF-7), fibrosarcoma (HT-1080), colon (Caco-2), and prostate (PC-3) cancer cell lines. Viability and IC50 of normal human fibroblasts and cell lines from melanoma and other malignancies following treatment with all the agents are measured using the MTS assay (Promega, Madison, Wis.). Human fibroblast FF2441 cells, metastatic melanoma cell lines 1205 Lu and UACC 903 as well as cancer cell lines representing sarcoma (HT-1080), prostate (PC-3, LNCaP), breast (MCF-7) and lung (A-549) are maintained in DMEM (Invitrogen, Carlsbad, Calif.) supplemented with 10% FBS (Hyclone, Logan, Utah) in a 5% CO2 atmosphere, humidified 37° C. incubator. 5×10^3 cells per well in 100 μL of media are plated and grown in a 96-well plate for 48 to 72 h and treated with either DMSO vehicle control or 0.62 to 40 μmol/L for 24, 48 or 72 h. IC50 values for each compound in […] for respective cell lines are measured from three independent experiments using GraphPad Prism version 4.01 (GraphPad Software, La Jolla, Calif.). FIG. 52 is a graph showing IC50 values for leelamine and compounds 4a, 4b and 5a in treated fibroblasts (FF2441) compared to melanoma cells. Selectivity ratio here is defined as ratio of activity against fibroblasts compared to activity against melanoma cells. Leelamine is relatively selective with a ratio of >6 and >4 for UACC903 and 1205Lu melanoma cells. The selectivity ratio of compound 4a is ˜4 and ˜3 for UACC903 and 1205Lu and for compound 4b is ˜4 for both cell lines. The selectivity ratio of compound 5a is ˜4 for UACC903 and >2 for 1205Lu cells.

cancer cell line = experiment: MTS assay viability IC50, A-459; assay type: cell-based; details: A459; Table 5; read-out: IC50 Liver (A-459)
Procedure: as §1

[2] = test system: 1205 Lu metastatic melanoma cells; experiment: MTS assay viability IC50, 1205 Lu; assay type: cell-based, human; details: for IC50: Homo sapiens, 1205Lu
Procedure: (§2) The efficacy of leelamine to kill other cancer types is measured and the IC50 for cell lines derived from carcinomas of breast, lung, prostate, connective tissue, pancreas and colon determined. The MTS assay as described in Sharma, A. et al., Clin Cancer Res, 2009, 15:1674-85; and Madhunapantula, S. V. et al., Mol Cancer Ther, 2008, 7:1297-308 is used to establish the IC50 at 24, 48 and 72 hours of leelamine treatment for normal human epidermal melanocytes (FOM103), normal skin fibroblast cells (FF2441), normal skin keratinocytes (HFK) and compared to melanocytic lesion cells from the radial-, vertical- and metastatic melanoma stages. 5×10^3 cells per well in 100 μL of media are plated and grown in a 96-well plate for 48 to 72 hours and treated with either DMSO vehicle control or 0.62 to 40 μmol/L of leelamine for 24, 48 or 72 hours. IC50 values for each compound in μmol/L for respective cell lines are measured from three independent experiments using GraphPad Prism version 4.01 (GraphPad Software, La Jolla, Calif.). Leelamine is found to be not toxic to normal cells and effective to kill melanoma cells as well as non-melanoma cancer cells as shown in Table 1 in FIG. 20. Leelamine is 3- to 4-fold more specific at killing metastatic melanoma than normal cells, supporting cancer therapeutic utility at concentrations<2 μmol/L.
(§3) 5×10^3 cells per well in 100 μL of media are plated and grown in a 96-well plate for 48 to 72 hours and treated with either DMSO vehicle control or 0.62 to 40 μmol/L of leelamine for 24, 48 or 72 hours. IC50 values for each compound in μmol/L for respective cell lines are measured from three independent experiments using GraphPad Prism version 4.01 (GraphPad Software, La Jolla, Calif.).
(§4) The IC50 and effect of liposomal preparations of leelamine on viability of normal human melanocytes, fibroblasts and melanoma cells UACC 903 and 1205 Lu are measured using the MTS assay (Promega, Madison, Wis.). Empty liposomes or liposomes containing abietic acid are used as controls. 5×10^3 cells per well in 100 μL of media are plated and grown in a 96-well plate for 48 or 72 hours for melanoma and normal cell lines, respectively. The cells are then treated with 0.62 to 40 μmol/L of liposome alone, a liposomal preparation of abietic acid, or with Nanolipolee-007 for 24 hours. IC50 values for each liposome in μmol/L for respective cell lines are measured from three independent experiments using GraphPad Prism version 4.01 (GraphPad Software, La Jolla, Calif.). Nanolipolee-007 retains the growth inhibitory activity of leelamine in killing melanoma cells in culture and specifically kills melanoma cells compared to normal cells, FIG. 24.
as §1, with “FIG. 52 is a graph showing IC50 values for leelamine and compounds 4a, 4b and 5a in treated fibroblasts (FF2441) compared to melanoma cells. Selectivity ratio here is defined as ratio of activity against fibroblasts compared to activity against melanoma cells. Leelamine is relatively selective with a ratio of >6 and >4 for UACC903 and 1205Lu melanoma cells. The selectivity ratio of compound 4a is ˜4 and ˜3 for UACC903 and 1205Lu and for compound 4b is ˜4 for both cell lines. The selectivity ratio of compound 5a is ˜4 for UACC903 and >2 for 1205Lu cells.” left out

[3] = test system: FF2441 normal human fibroblasts; experiment: MTS assay viability IC50, normal fibroblasts; assay type: cell-based; details: Homo sapiens, FF2441; Table 5; read-out: IC50 Fibroblast FF2441
Procedure: as §2
as §3, with “Calif.). […]” for “Calif.).”
as §1

[4] = test system: Prostate (PC-3) cancer cell line; experiment: MTS assay viability IC50, PC-3; assay type: cell-based; details: Table 5
Procedure: as §1

[5] = test system: Prostate (LnCap) cancer cell line; experiment: MTS assay viability IC50, LnCap; assay type: cell-based; details: Homo sapiens, Table 5
Procedure: as §1

[6] = test system: UACC 903 metastatic melanoma cells; experiment: MTS assay viability IC50, UACC 903; assay type: cell-based, human; details: for IC50: Homo sapiens, UACC-903
Procedure: as §2, §3, §4
as §1, with “FIG. 52 is a graph showing IC50 values for leelamine and compounds 4a, 4b and 5a in treated fibroblasts (FF2441) compared to melanoma cells. Selectivity ratio here is defined as ratio of activity against fibroblasts compared to activity against melanoma cells. Leelamine is relatively selective with a ratio of >6 and >4 for UACC903 and 1205Lu melanoma cells. The selectivity ratio of compound 4a is ˜4 and ˜3 for UACC903 and 1205Lu and for compound 4b is ˜4 for both cell lines. The selectivity ratio of compound 5a is ˜4 for UACC903 and >2 for 1205Lu cells.” left out

[7] = test system: Fibrosarcoma (HT-1080) cancer cell line; experiment: MTS assay viability IC50, HT-1080; assay type: cell-based; details: Homo sapiens, Table 5, read-out: IC50 Fibro Sarcoma (HT-1080)
Procedure: as §1

[8] = activity against fibroblasts FF2441 compared to melanoma cells

CNC[C@]1(C)CCC[C@]2(C)C3CCC(C(C)C)=CC3=CCC12 (stereo partly drawn) [Compound 4b, {[(1R,4aR)-1,4a-dimethyl-7-(propan-2-yl)-1,2,3,4,4a,4b,5,6,10,10a-decahydrophenanthren-1-yl]methyl}(methyl)amine]
IC50 [1]: 9040 ± 2430 nM
IC50 (cancer cell line): 15300 ± 1830 nM
IC50 ([2]; Example 8, read-out: IC50 1205Lu): 2380 nM
IC50 ([2]; Table 4, read-out: IC50 Metastatic Melanoma Cell line 1205Lu): 2380 ± 140 nM
IC50 ([2]; Table 6, read-out: IC50 Metastatic melanoma 1205 Lu): 2380 ± 140 nM
Selectivity ratio, fibroblasts versus 1205Lu [2, 8]: ~4
IC50 [3]: 9330 ± 1270 nM
IC50 [4]: 10700 ± 870 nM
IC50 [5]: 22400 ± 3310 nM
IC50 ([6]; Example 8, read-out: IC50 UACC 903): 2360 nM
IC50 ([6]; Table 4, read-out: IC50 Metastatic Melanoma Cell line UACC903): 2360 ± 250 nM
IC50 ([6]; Table 5, read-out: IC50 Melanoma (UACC903)): 2360 ± 250 nM
IC50 ([6]; Table 6, read-out: IC50 Metastatic melanoma UACC 903): 2360 ± 250 nM
IC50 ([6]; Table 7, read-out: IC50 (UACC903)): 2360 nM
Selectivity ratio, fibroblasts versus UACC903 [6, 8]: ~4
IC50 [7]: 4540 ± 870 nM
